Counter-ions that a name gives are not always drawn.
Each molecule was assayed on human neutrophilic leukocytes (assay: Inhibition of superoxide radical (O2-) generation in FMLP-stimulated human neutrophilic leukocytes (ferricytochrome C method)). Conditions: Homo sapiens, Leukocyte, Table 16; comparative test present compounds vs prior art compounds; NE = not effective.
Format: cell-based
Description: (1) Activity for inhibiting the generation of superoxide radical (O2^−) in human neutrophilic leukocytes
That is, a whole blood obtained from a healthy adult and treated by anticoagulation method was subjected to a dextranhypotonic treatment to obtain leukocyte cells. The leukocyte cells were then subjected to a density gradient ultracentrifugation by Ficoll-Paque to obtain a neutrophilic leukocyte fraction.
O2^− generation was examined by the ferricytochrome C method in accordance with the method of B. N. Cronstein et al. [Journal of Experimental Medicine, vol. […] Each test compound was dissolved in dimethyl sulfoxide (DMSO); the solution was added to neutrophilic leukocytes before the addition of FMLP; then, the neutrophilic leukocytes were pre-incubated at 37° C.

Compared with `CCOc1ccc(-c2nc(-c3ccc(O)c(C(=O)O)c3)cs2)cc1OC` [compound 88, 4-(3-Carboxy-4-hydroxyphenyl)-2-(3-methoxy-4-ethoxyphenyl)thiazole], `COc1ccc(-c2nc(-c3ccc(O)c(C(=O)O)c3)cs2)cc1OC` [compound 105, 4-(3-Carboxy-4-hydroxyphenyl)-2-(3,4-dimethoxyphenyl)thiazole, reference compound] is 10-fold higher in IC50: 100 nM for the first, 1000 nM for the second. The first is the more potent here.

Going from `CCOc1ccc(-c2nc(-c3cc(C(=O)O)ccc3OC)cs2)cc1OCC` [compound 112, 4-(3-Carboxy-6-methoxyphenyl)-2-(3,4-diethoxyphenyl)thiazole, reference compound] to `CCOc1ccc(-c2nc(-c3cc(C(=O)O)ccc3O)cs2)cc1OCC` [compound 91, 4-(3-Carboxy-6-hydroxyphenyl)-2-(3,4-diethoxyphenyl)thiazole], the IC50 falls from 8700 nM to 23 nM (380-fold).

With `CCOc1ccc(-c2nc(-c3cc(O)cc(C(=O)O)c3)cs2)cc1OCC` [compound 110, 4-(3-Carboxy-5-hydroxyphenyl)-2-(3,4-diethoxyphenyl)thiazole, reference compound] the IC50 was 660 nM.

Same assay, conditions: Homo sapiens, Leukocyte, pH 7.4, Table 15; O2- generation, 3x10^-7 M FMLP, cytochalasin B, 37° C., pH 7.4

First: COc1ccc(-c2nc(-c3ccc(OS(=O)(=O)O)cc3)cs2)cc1OC [compound 63, 4-(4-Hydroxysulfonyloxyphenyl)-2-(3,4-dimethoxyphenyl)thiazole]
Second: COc1ccc(-c2nc(-c3ccc4[nH]c(=O)oc4c3)cs2)cc1OC [compound 55, 2-(3,4-Dimethoxyphenyl)-4-(2-oxobenzoxazol-6-yl)thiazole]
The IC50 of the first is 2.3-fold lower: 30 nM for the first, 70 nM for the second. The first is the more potent here.

First: C=CCc1cc(C(=O)O)cc(-c2csc(-c3ccc(OCC)c(OCC)c3)n2)c1O [compound 103, 4-(3-Carboxy-5-allyl-6-hydroxyphenyl)-2-(3,4-diethoxy-phenyl)thiazole]
Second: CCOc1ccc(-c2nc(-c3cc(C(=O)O)cc(N)c3O)cs2)cc1OCC [compound 113, 4-(2-Hydroxy-3-amino-5-carboxyphenyl)-2-(3,4-diethoxy-phenyl)thiazole hydrochloride]
The IC50 of the first is 3.8-fold higher: 94 nM for the first, 25 nM for the second. The second is the more potent here.

First: CCOc1ccc(-c2nc(-c3ccc(O)c(C(=O)O)c3)cs2)cc1OC [compound 88, 4-(3-Carboxy-4-hydroxyphenyl)-2-(3-methoxy-4-ethoxyphenyl)thiazole]
Second: CCOc1ccc(-c2nc(-c3ccc(N)c(C(=O)O)c3)cs2)cc1OCC [compound 96, 4-(3-Carboxy-4-aminophenyl)-2-(3,4-diethoxyphenyl)-thiazole]
The IC50 of the first is 4.3-fold higher: 100 nM for the first, 23 nM for the second. The second is the more potent here.

First: CCOc1ccc(-c2nc(-c3ccc(N)cc3)cs2)cc1OCC [compound 72, 4-(4-Aminophenyl)-2-(3,4-diethoxyphenyl)thiazole hydrochloride]
Second: CCOc1ccc(-c2nc(-c3ccc(O)c(CO)c3)cs2)cc1OCC [compound 133, 2-(3,4-Diethoxyphenyl)-4-(4-hydroxy-3-hydroxymethylphenyl)thiazole]
The IC50 of the first is 22-fold higher: 200 nM for the first, 9.2 nM for the second.

Going from `CCOc1ccc(-c2nc(-c3cc(OC(C)=O)cc(OC(C)=O)c3)cs2)cc1OCC` [compound 79, 4-(3,5-Diacetyloxyphenyl)-2-(3,4-diethoxyphenyl) thiazole] to `CCOc1ccc(-c2nc(-c3cc(Br)c(O)c(C(=O)O)c3)cs2)cc1OCC` [compound 145, 2-(3,4-Diethoxyphenyl)-4-(3-carboxy-4-hydroxy-5-bromophenyl)thiazole], the IC50 rises from 1.3 nM to 110 nM (85-fold). The first is the more potent here.

`CCOc1ccc(C2(c3ccc(OCC)c(OCC)c3)NC(c3ccc(OC(C)=O)c(C(=O)O)c3)=CS2)cc1OCC` [compound 97, 4-(3-Carboxy-4-acetyloxyphenyl)-2-(3,4-diethoxyphenyl)-2-(3,4-diethoxyphenyl)thiazole] and `CCCCOc1ccc(-c2csc(-c3ccc(OCC)c(OCC)c3)n2)cc1C(=O)O` [compound 137, 2-(3,4-Diethoxyphenyl)-4-(3-carboxy-4-n-butoxyphenyl)thiazole] are within 1.5-fold of each other in IC50: 100 nM for the first, 110 nM for the second.

Going from `CCOc1ccc(-c2nc(-c3cc(C(=O)OC)cc(N)c3O)cs2)cc1OCC` [compound 102, 4-(3-Methoxycarbonyl-5-amino-6-hydroxyphenyl)-2-(3,4-diethoxyphenyl)thiazole] to `CCOc1ccc(-c2nc(-c3cc(C(=O)O)ccc3O)cs2)cc1OCC` [compound 91, 4-(3-Carboxy-6-hydroxyphenyl)-2-(3,4-diethoxyphenyl)thiazole], the IC50 falls from 69 nM to 23 nM (3-fold). The second is the more potent here.

Going from `CCOc1ccc(-c2nc(C(O)c3ccc(OC)c(OC)c3)cs2)cc1OCC` (stereo not drawn) [compound 73, 4-[1-Hydroxy-1-(3,4-dimethoxyphenyl)methyl]-2-(3,4-diethoxyphenyl)thiazole] to `CCOc1ccc(-c2nc(-c3ccc(OCC(=O)OC)c(C(=O)OC)c3)cs2)cc1OCC` [compound 81, 4-(4-Methoxycarbonylmethoxy-3-methoxycarbonylphenyl)-2-(3,4-diethoxyphenyl)thiazole], the IC50 falls from 200 nM to 26 nM (7.7-fold).

Going from `CCOc1ccc(-c2nc(-c3cc(C=O)c(O)c(C(=O)O)c3)cs2)cc1OCC` [compound 142, 2-(3,4-Diethoxyphenyl)-4-(3-carboxy-4-hydroxy-5-formylphenyl)thiazole] to `CC=Cc1cc(-c2csc(-c3ccc(OCC)c(OCC)c3)n2)cc(C(=O)O)c1O` [compound 140, 2-(3,4-Diethoxyphenyl)-4-[3-carboxy-4-hydroxy-5-(1-propenyl)phenyl]thiazole], the IC50 falls from 120 nM to 4.7 nM (26-fold). The second is the more potent here.

First: CCOc1ccc(-c2nc(-c3cc(C(=O)O)c(O)cc3O)cs2)cc1OCC [compound 100, 4-(3-Carboxy-4,6-dihydroxyphenyl)-2-(3,4-diethoxyphenyl)thiazole]
Second: CCOc1ccc(-c2nc(-c3cnc(C)c(C(=O)O)c3)cs2)cc1OCC [compound 141, 2-(3,4-Diethoxyphenyl)-4-(2-methyl-3-carboxy-5-pyridyl)thiazole]
The IC50 of the first is 2-fold lower: 48 nM for the first, 94 nM for the second. The first is the more potent here.

Going from `COc1ccc(-c2nc(-c3cc(N)cc(N)c3)cs2)cc1OC` [compound 71, 4-(3,5-Diaminophenyl)-2-(3,4-dimethoxyphenyl) thiazole dihydrochloride] to `COc1ccc(-c2nc(-c3ccccn3)cs2)cc1OC` [compound 60, 2-(3,4-Dimethoxyphenyl)-4-(2-pyridyl)thiazole hydrochloride], the IC50 falls from 200 nM to 50 nM (4-fold).

First: CCOc1ccc(-c2nc(-c3ccc(O)c(NC(C)=O)c3)cs2)cc1OCC [compound 65, 4-(3-Acetylamino-4-hydroxyphenyl)-2-(3,4-diethoxyphenyl)thiazole]
Second: CCOc1ccc(-c2nc(-c3ccc(C(=O)O)[nH]3)cs2)cc1OCC [compound 119, 2-(3,4-Diethoxyphenyl)-4-(2-carboxy-5-pyrrolyl)-thiazole]
The IC50 of the first is 2.5-fold higher: 60 nM for the first, 24 nM for the second.

Compared with `CCOc1ccc(-c2nc(-c3ccc(C(=O)O)o3)cs2)cc1OCC` [compound 122, 2-(3,4-Diethoxyphenyl)-4-(2-carboxy-5-furyl)-thiazole], `CCOc1ccc(-c2nc(-c3nc(C(=O)O)cs3)cs2)cc1OCC` [compound 132, 2-(3,4-Diethoxyphenyl)-4-(4-carboxy-2-thiazolyl)-thiazole] is 2.6-fold higher in IC50: 19 nM for the first, 50 nM for the second. The first is the more potent here.

With `CCOc1ccc(-c2nc(-c3cccc(C(=O)N(C)C)n3)cs2)cc1OCC` [compound 123, 2-(3,4-Diethoxyphenyl)-4-(2-dimethylaminocarbonyl-6-pyridyl)thiazole] the IC50 was 380 nM.

Same assay, conditions: Table 15; O2- generation, 3x10^-7 M FMLP, cytochalasin B, 37° C., pH 7.4

Going from `Fc1ccc(-c2csc(-c3cccnc3)n2)cc1.Fc1ccc(-c2csc(-c3cccnc3)n2)cc1.Fc1ccc(-c2csc(-c3cccnc3)n2)cc1.[Cl][Fe][Cl]` [compound 56, 2-(3-Pyridyl)-4-(4-fluorophenyl)thiazole-⅓ FeCl2 salt] to `CCOc1ccc(-c2nc(-c3cccc(CO)n3)cs2)cc1OCC` [compound 127], the IC50 falls from 1000 nM to 20 nM (50-fold). The second is the more potent here.

Going from `CCOc1ccc(-c2nc(-c3cccc(C(=O)N4CCN(C)CC4)n3)cs2)cc1OCC` [compound 128] to `CCOc1ccc(-c2nc(-c3ccc(OC)c(C(=O)O)c3)cs2)cc1OCC` [compound 125], the IC50 falls from 580 nM to 190 nM (3.1-fold).
